The target in assay [1] is T1, SMARCA2-NanoLuc (Homo sapiens, UniProt P51531).
T1 construct: expressed in transfected cells; host or cells: HEK293
As to the kind of experiment: NanoBRET target engagement assay, live and permeabilized HEK293 cells (SMARCA2). It is filed as cell-based. To be noted: SMARCA2 NanoBRET TE. The procedure:
We employed a NanoBRET-based target engagement (TE) assay as reported earlier^7 for evaluating PROTACs relative permeability. In summary, live and permeabilized HEK293 cells with SMARCA2 or BRD4-NanoLuc were used for measuring IC50 values of different PROTACs. The relative shift in the IC50 was evaluated as relative binding affinity (RBA) by taking the ratio of IC50 values of live and permeabilized cells. Availability index (AI), which is a surrogate for permeability can be calculated by taking a ratio of RBA of compounds to permeable benchmark molecules. We used SMARCA bromodomain binding ligand^8 for SMARCA2 PROTACs and JQ1^9, 10 for BRD4 PROTACs as benchmark molecules.
Relative Binding Affinity (RBA) = Live-cell TE IC50 / Permeabilized-cell TE IC50
Availability Index (AI) = RBAtest cmpd / RBApermeable benchmark
Availability Index (AI) greater than one is indicative of reduced permeability compared to the benchmark.
A general note: Bioluminescence resonance energy transfer reports proximity on the nanometre scale.

Assay [2] has as its target T2, SMARCA2 (Homo sapiens, UniProt P51531).
T2 construct: endogenous in cells; host or cells: A375
The assay is described as follows: SMARCA2 degradation time course in A375 cells (MSD). It is filed as cell-based. The conditions noted are these: single concentration at or near maximal activity. From the text: This characteristic has been described as cooperativity (α > 1) and likely results from favorable PPIs present in the ternary complex. […] To measure the rate of protein degradation, we treated A375 cells with a single concentration of each PROTAC and measured the decrease in target abundance over time as shown in Figs. 4b and5b.
MSD electrochemiluminescence signals were subtracted by the average background signal from wells with lysis buffer alone. Normalized MSD values (POC) for individual compound treated wells were acquired by dividing background-subtracted assay signal by signal from vehicle control wells (cells + 0.1% DMSO) and multiplying by 100. This POC data was graphed using a nonlinear regression curve fit xy analysis and a log(inhibitor) vs response —variable slope (four parameter) model for dose response curves (Graphpad Prism 9, San Diego, CA, USA). To calculate area under the curve, all points on the curve were connected and vertical lines were drawn from each point down to y = 0, generating a series of trapezoids. The area of each trapezoid was determined using the equation A = (1/2)(h)(b1 + b2), where h = 1 (distance between points), b1 = POC of the first point and b2 = POC of the second point. The sum of all trapezoids provides an approximate area under the curve (AUC). For half-life (t1/2) determination in time course studies, a one-phase decay model was used for curve fitting and the time at which the curve crossed 50 POC was determined through interpolation (Graphpad Prism 9, San Diego, CA, USA). Additionally initial rate of degradation was determined by multiplying 100 with rate constant (τ = 0.693/t1/2).

Setting [3] is: live HEK293 cells, read-out: Live-Cell TE IC50.
[4] abbreviates: permeabilized HEK293 cells, read-out: Permeabilized-Cell TE IC50.

Where two headings read alike, the source gives them in different places.

Results on nine compounds are retold here after article PMC10344917, “Affinity and cooperativity modulate ternary complex formation to drive targeted protein degradation” (Nature Communications, 2023).

T1 sequence (P51531 whole entry): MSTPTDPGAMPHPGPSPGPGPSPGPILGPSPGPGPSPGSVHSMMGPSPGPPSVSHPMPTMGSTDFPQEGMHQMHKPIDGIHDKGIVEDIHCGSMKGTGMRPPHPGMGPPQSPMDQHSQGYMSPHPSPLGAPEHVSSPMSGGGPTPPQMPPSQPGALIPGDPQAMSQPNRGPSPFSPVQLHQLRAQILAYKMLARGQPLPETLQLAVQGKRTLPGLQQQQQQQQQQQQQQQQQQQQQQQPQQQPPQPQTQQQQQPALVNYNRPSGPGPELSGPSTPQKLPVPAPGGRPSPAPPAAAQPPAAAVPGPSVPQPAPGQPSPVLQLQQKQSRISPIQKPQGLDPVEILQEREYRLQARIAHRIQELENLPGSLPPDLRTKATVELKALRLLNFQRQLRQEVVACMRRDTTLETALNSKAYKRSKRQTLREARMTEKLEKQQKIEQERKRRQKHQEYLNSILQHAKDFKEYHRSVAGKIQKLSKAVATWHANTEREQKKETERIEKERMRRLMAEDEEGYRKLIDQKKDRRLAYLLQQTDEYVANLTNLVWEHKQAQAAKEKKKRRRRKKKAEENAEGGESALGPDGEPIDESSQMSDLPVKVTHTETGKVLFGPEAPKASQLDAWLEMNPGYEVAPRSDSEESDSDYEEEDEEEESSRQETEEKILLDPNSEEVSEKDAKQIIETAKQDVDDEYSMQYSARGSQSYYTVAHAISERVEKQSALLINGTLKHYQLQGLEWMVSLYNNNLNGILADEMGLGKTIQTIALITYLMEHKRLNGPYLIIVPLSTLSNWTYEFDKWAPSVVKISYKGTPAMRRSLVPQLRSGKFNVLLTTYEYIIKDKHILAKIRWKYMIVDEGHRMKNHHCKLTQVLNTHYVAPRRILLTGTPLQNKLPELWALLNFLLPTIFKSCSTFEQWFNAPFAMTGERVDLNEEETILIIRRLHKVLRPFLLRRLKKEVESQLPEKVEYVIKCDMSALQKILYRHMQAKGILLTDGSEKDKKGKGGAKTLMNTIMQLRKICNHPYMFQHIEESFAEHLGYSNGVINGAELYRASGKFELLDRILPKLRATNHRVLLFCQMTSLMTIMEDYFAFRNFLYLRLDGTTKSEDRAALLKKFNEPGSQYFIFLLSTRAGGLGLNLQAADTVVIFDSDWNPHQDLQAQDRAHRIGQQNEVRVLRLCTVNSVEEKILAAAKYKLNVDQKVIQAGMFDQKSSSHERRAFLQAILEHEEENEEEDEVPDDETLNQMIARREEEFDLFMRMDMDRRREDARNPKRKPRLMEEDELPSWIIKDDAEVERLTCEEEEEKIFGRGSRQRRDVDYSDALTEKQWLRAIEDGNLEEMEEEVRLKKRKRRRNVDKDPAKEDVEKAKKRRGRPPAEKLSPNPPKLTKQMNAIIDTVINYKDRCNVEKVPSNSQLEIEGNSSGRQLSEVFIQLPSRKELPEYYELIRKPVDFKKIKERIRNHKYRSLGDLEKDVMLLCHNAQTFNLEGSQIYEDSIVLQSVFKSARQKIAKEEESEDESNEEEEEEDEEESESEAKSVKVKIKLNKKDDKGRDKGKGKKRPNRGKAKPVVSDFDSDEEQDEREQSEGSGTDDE
T2 sequence (P51531 whole entry): as above

One may read the IC50 as the concentration needed to halve the response being measured. For `Cc1ncsc1-c1ccc(CNC(=O)C2C[C@@H](O)CN2C(=O)C(NC(=O)C2(F)CC2)C(C)(C)C)c(OCCc2ccc(CN3CCN(c4cc(-c5ccccc5O)nnc4N)CC3)cc2)c1` (stereo in doubt) [Compound 11, (2R,4R)-N-(2-(4-((4-(3-amino-6-(2-hydroxyphenyl)pyridazin-4-yl)piperazin-1-yl)methyl)phenethoxy)-4-(4-methylthiazol-5-yl)benzyl)-1-((R)-2-(1-fluorocyclopropane-1-carboxamido)-3,3-dimethylbutanoyl)-4-hydroxypyrrolidine-2-carboxamide, reference compound], the results for the IC50 in assay [1] (setting [3]) and in assay [1] (setting [4]) were 0.98 µM and 0.74 µM, respectively. The “Initial Degradation Rate” value in assay [2] stood at 0.25 %/min.
The corresponding values for `Cc1ncsc1-c1ccc([C@H](C)NC(=O)[C@@H]2C[C@@H](O)CN2C(=O)[C@@H](NC(=O)c2ccnc(N3CCN(c4cc(-c5ccccc5O)nnc4N)CC3)c2)C(C)(C)C)cc1` [Compound 1, 2-(4-(3-Amino-6-(2-hydroxyphenyl)pyridazin-4-yl)piperazin-1-yl)-N-((S)-1-((2S,4R)-4-hydroxy-2-(((S)-1-(4-(4-methylthiazol-5-yl)phenyl)ethyl)carbamoyl)pyrrolidin-1-yl)-3,3-dimethyl-1-oxobutan-2-yl)isonicotinamide] are 0.2 µM, 0.15 µM and 1.9 %/min.
The corresponding values for `Cc1ncsc1-c1ccc([C@H](C)NC(=O)[C@@H]2C[C@@H](O)CN2C(=O)[C@@H](NC(=O)c2cccc(N3CCN(c4cc(-c5ccccc5O)nnc4N)CC3)n2)C(C)(C)C)cc1` [Compound 2, 6-(4-(3-Amino-6-(2-hydroxyphenyl)pyridazin-4-yl)piperazin-1-yl)-N-((S)-1-((2S,4R)-4-hydroxy-2-(((S)-1-(4-(4-methylthiazol-5-yl)phenyl)ethyl)carbamoyl)pyrrolidin-1-yl)-3,3-dimethyl-1-oxobutan-2-yl)picolinamide] are 0.4 µM, 0.2 µM and 2.02 %/min.
Consider `Cc1ncsc1-c1ccc([C@H](C)NC(=O)[C@@H]2C[C@@H](O)CN2C(=O)[C@@H](NC(=O)c2cccc(N3CCN(c4cc(-c5ccccc5O)nnc4N)CC3)c2)C(C)(C)C)cc1` [Compound 4, (2S,4R)-1-((S)-2-(3-(4-(3-Amino-6-(2-hydroxyphenyl)pyridazin-4-yl)piperazin-1-yl)benzamido)-3,3-dimethylbutanoyl)-4-hydroxy-N-((S)-1-(4-(4-methylthiazol-5-yl)phenyl)ethyl)pyrrolidine-2-carboxamide], for which the IC50 worked out at 0.82 µM in assay [1] (setting [3]) and 0.75 µM in assay [1] (setting [4]). Besides, in assay [2], the “Initial Degradation Rate” value was 2.06 %/min.
With `Cc1ncsc1-c1ccc([C@H](C)NC(=O)[C@@H]2C[C@@H](O)CN2C(=O)[C@@H](NC(=O)c2csc(N3CCN(c4cc(-c5ccccc5O)nnc4N)CC3)n2)C(C)(C)C)cc1` [Compound 5, 2-(4-(3-Amino-6-(2-hydroxyphenyl)pyridazin-4-yl)piperazin-1-yl)-N-((S)-1-((2S,4R)-4-hydroxy-2-(((S)-1-(4-(4-methylthiazol-5-yl)phenyl)ethyl)carbamoyl)pyrrolidin-1-yl)-3,3-dimethyl-1-oxobutan-2-yl)thiazole-4-carboxamide], the values for the half-inhibitory concentration (IC50) in assay [1] (setting [3]) and in assay [1] (setting [4]) were 1.26 µM and 0.4 µM, respectively. Moreover, the “Initial Degradation Rate” value in assay [2] stood at 1.9 %/min.
Turning to `Cc1ncsc1-c1ccc([C@H](C)NC(=O)[C@@H]2C[C@@H](O)CN2C(=O)[C@@H](NC(=O)CN2CCN(c3cc(-c4ccccc4O)nnc3N)CC2)C(C)(C)C)cc1` [Compound 6, (2S,4R)-1-((S)-2-(2-(4-(3-Amino-6-(2-hydroxyphenyl)pyridazin-4-yl)piperazin-1-yl)acetamido)-3,3-dimethylbutanoyl)-4-hydroxy-N-((S)-1-(4-(4-methylthiazol-5-yl)phenyl)ethyl)pyrrolidine-2-carboxamide, reference compound], the IC50 in assay [1] (setting [3]) was found to be 1.41 µM; in assay [1] (setting [4]) it was 0.09 µM. Besides, the “Initial Degradation Rate” value in assay [2] amounted to 3.5 %/min.
The corresponding values for `Cc1ncsc1-c1ccc([C@H](C)NC(=O)[C@@H]2C[C@@H](O)CN2C(=O)[C@@H](NC(=O)Cc2ccnc(N3CCN(c4cc(-c5ccccc5O)nnc4N)CC3)c2)C(C)(C)C)cc1` [Compound 7, (2S,4R)-1-((S)-2-(2-(2-(4-(3-Amino-6-(2-hydroxyphenyl)pyridazin-4-yl)piperazin-1-yl)pyridin-4-yl)acetamido)-3,3-dimethylbutanoyl)-4-hydroxy-N-((S)-1-(4-(4-methylthiazol-5-yl)phenyl)ethyl)pyrrolidine-2-carboxamide] are 0.69 µM, 0.21 µM and 0.78 %/min.
With `Cc1ncsc1-c1ccc([C@H](C)NC(=O)[C@@H]2C[C@@H](O)CN2C(=O)[C@@H](NC(=O)CCc2ccnc(N3CCN(c4cc(-c5ccccc5O)nnc4N)CC3)c2)C(C)(C)C)cc1` [Compound 8, (2S,4R)-1-((S)-2-(3-(2-(4-(3-Amino-6-(2-hydroxyphenyl)pyridazin-4-yl)piperazin-1-yl)pyridin-4-yl)propanamido)-3,3-dimethylbutanoyl)-4-hydroxy-N-((S)-1-(4-(4-methylthiazol-5-yl)phenyl)ethyl)pyrrolidine-2-carboxamide], the half-inhibitory concentration (IC50) in assay [1] (setting [3]) was 0.6 µM; in assay [1] (setting [4]) it was 0.05 µM. Also, the “Initial Degradation Rate” value in assay [2] is on record as 1.34 %/min.
Consider `Cc1ncsc1-c1ccc([C@H](C)NC(=O)[C@@H]2C[C@@H](O)CN2C(=O)[C@@H](NC(=O)c2ccnc(N3CCN(c4cnnc(-c5ccccc5O)c4)CC3)c2)C(C)(C)C)cc1` [Compound 10, N-((S)-1-((2S,4R)-4-Hydroxy-2-(((S)-1-(4-(4-methylthiazol-5-yl)phenyl)ethyl)carbamoyl)pyrrolidin-1-yl)-3,3-dimethyl-1-oxobutan-2-yl)-2-(4-(6-(2-hydroxyphenyl)pyridazin-4-yl)piperazin-1-yl)isonicotinamide], for which the IC50 in assay [1] (setting [3]) amounted to 2.37 µM; in assay [1] (setting [4]), 5.04 µM. For the same compound, in assay [2], the “Initial Degradation Rate” value came to 0.56 %/min.
